Test results published in patent US20250214925A1, “CATIONIC LIPID, LIPOSOME, LIPID NANOPARTICLE, AND USE” (CARCELL BIOPHARMA LTD., priority 2022, published 2025).

What was measured:
[1] = LNP size and PDI by dynamic laser light scattering; format: physicochemical; conditions: LNP: 50% cationic lipid, 38.5% cholesterol, 10% DSPC, 1.5% DMG-PEG2000; Ffluc mRNA
Summary of the method: (§1)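 LNPs of cationic lipid/cholesterol/DSPC/DMG-PEG2000 at 50/38.5/10/1.5 mol% in ethanol, mixed with Ffluc mRNA at 0.2 mg/mL in 10 mM pH 4.0 citrate via T-mixer at 40 mL/min. Dialyzed overnight against 50 mM Tris-buffered saline pH 7.4 and sieved; PDI by dynamic light scattering, encapsulation by Ribogreen.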

[2] = mRNA encapsulation efficiency of LNP by Ribogreen assay; format: physicochemical; conditions: LNP: 50% cationic lipid, 38.5% cholesterol, 10% DSPC, 1.5% DMG-PEG2000; Ffluc mRNA
Summary of the method: as §1

mice [3] = assay: In vivo delivery of Ffluc mRNA LNP in mice, intravenous administration, luminescence relative to MC3; parameters: species or system mice (female Balb/C); conditions: fold change in luminescence intensity relative to MC3; 0.06 mg/kg tail vein; 6 h after injection
Summary of the method: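 Female Balb/C mice (18-22 g, 6-8 weeks, n=5) received Ffluc mRNA LNP at 0.06 mg/kg by tail vein in 50 mM TBS pH 7.4. Six hours later, intraperitoneal D-luciferin was given and whole-body luminescence imaged, with each lipid reported as fold change relative to MC3 LNP.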

mice [4] = assay: In vivo delivery of Ffluc mRNA LNP in mice, intramuscular administration, luminescence relative to MC3; parameters: species or system mice (female Balb/C); conditions: fold change in luminescence intensity relative to MC3; 50 μL of 0.1 mg/mL mRNA LNP into right thigh; 6 h after injection
Description: The prepared encapsulation solution was applied to mice in the following manner, and its delivery efficiency in mice was tested. Among them, DLin-MC3-DMA (MC3) was a cationic liposome for delivering small nucleic acids that was approved by the FDA for marketing in 2018, which has high nucleic acid drug delivery efficiency and biosafety, and was usually used as the industry gold standard in the screening process of cationic lipids. In the evaluation of mice experiments, the ratio of nucleic acid delivery efficiency normalized to MC3 was greater than 0.1, which was considered to be a cationic lipid with high delivery efficiency.
The LNP solution was diluted with 50 mM TBS, pH 7.4 to a concentration of 0.1 mg/mL mRNA.
2. The mice involved in this study were female Balb/C, weighing 18-22 g, 6-8 weeks old, with 5 mice in each group.
3. The dosing solution was kept at 4° C. prior to injection.
4. 50 μL of LNP solution was injected into the right thigh of the mice.
5. The mice were injected intraperitoneally with 200 μL of 1.5 mg/mL D-luciferin solution 6 h after injection.
6. The in vivo luminescence images of the mice were obtained using the IVIS system (Aniview).
7. The luminescence intensity of each mice was measured using Aniview software.
8. MC3 lipid nanoparticles were used as a positive control. The in vivo efficacy of each cationic lipid tested was recorded as the fold change in luminescence intensity relative to MC3 (ratio normalized to MC3).

| Compound | PDI [1] | Size (nm) [1] [nm] | Encapsulation Rate [2] [%] | In Vivo Efficacy Normalized To Mc3 In Mice (Intravenous Injection) (mice [3]) | In Vivo Efficacy Normalized To Mc3 In Mice (Intramuscular Injection) (mice [4]) |
| --- | --- | --- | --- | --- | --- |
| CCCCCCCCCC/C(=C\C(=O)OCCCCN(CCCO)CCCCOC(=O)/C=C(/CCCCC)CCCCCCCCCC)CCCCC [CPL-026, ((3-hydroxypropyl)azanediyl)bis(butane-4,1-diyl) (2Z,2′Z)-bis(3-pentyltridec-2-enoate)] | 0.2143 | 71.34 | 95 | 2.51 | 0.92 |
| CCCCCCCCCC/C(=C/C(=O)OCCCCCCN(CCCO)CCCCCCOC(=O)/C=C(\CCC)CCCCCCCCCC)CCC [CPL-062-01, ((3-hydroxypropyl)azanediyl)bis(hexane-6,1-diyl) (2E,2′E)-bis(3-propyltridec-2-enoate)] | 0.0828 | 67.12 | 98 | 2.21 | 1.06 |
| CCCCCCCCCC/C(=C/C(=O)OCCCCCCN(CCCO)CCCCCCOC(=O)/C=C(\CCCC)CCCCCCCCCC)CCCC [CPL-066, ((3-hydroxypropyl)azanediyl)bis(hexane-6,1-diyl) (2E,2′E)-bis(3-butyl-2-tridecenoate)] | 0.19 | 87.2 | 98 | 1.95 | 4.04 |
| CCCCC/C=C\C/C=C\CCCCCCCC(=O)OCC(COC(=O)/C=C(/CCCC)CCCCCC)COC(=O)OCC1CCCN(C)C1 (stereo not shown) [CPL-372, 3-(((Z)-3-butylnon-2-enoyl)oxy)-2-(((((1-methylpiperidin-3-yl)methoxy)carbonyl)oxy)methyl)propyl(9Z,12Z)-octadeca-9,12-dienoate] | 0.1182 | 90.88 | 98 | 1.01 |  |
| CCCCC/C=C\C/C=C\CCCCCCCC(=O)OCC(COC(=O)/C=C(\CCCCC)CCCCCCCC)COC(=O)OCC1CCCN(C)C1 (stereo not shown) [CPL-377, 3-((((1-methylpiperidin-3-yl)methoxy)carbonyl)oxy)-2-((((E)-3-pentylundec-2-enoyl)oxy)methyl)propyl(9Z,12Z)-octadeca-9,12-dienoate] | 0.1248 | 88.31 | 94 | 0.45 |  |
| CCCCC/C=C\C/C=C\CCCCCCCC(=O)OCC(COC(=O)/C=C(\CCCCC)CCCCCCCCCC)COC(=O)OCC1CCCN(C)C1 (stereo not shown) [CPL-378, 3-((((1-methylpiperidin-3-yl)methoxy)carbonyl)oxy)-2-((((E)-3-_pentyltridec-2-enoyl)oxy)methyl)propyl(9Z,12Z)-octadeca-9,12-dienoate] | 0.1099 | 82.38 | 96 | 0.43 |  |
| CCCCC/C=C\C/C=C\CCCCCCCC(=O)OCC(COC(=O)/C=C(\CCCCCC)CCCCCCCCCC)COC(=O)OCC1CCCN(C)C1 (stereo not shown) [CPL-381, 3-(((E)-3-hexyltridec-2-enoyl)oxy)-2-(((((1-methylpiperidin-3-yl)methoxy)carbonyl)oxy)methyl)propyl(9Z,12Z)-octadeca-9,12-dienoate] | 0.1174 | 83.86 | 91 | 0.81 |  |
| CCCCC/C=C\C/C=C\CCCCCCCC(=O)OCC(COC(=O)/C=C(/CCCCCCCC)CCCCCCCCCC)COC(=O)OCC1CCN(CC)CC1 (stereo not shown) [CPL-453] | 0.0653 | 81.2 | 98 | 0.82 |  |
| CCCCC/C=C\C/C=C\CCCCCCCC(=O)OCC(COC(=O)C=C(CCCCCCCCCC)CCCCCCCCCC)COC(=O)OCC1CCN(CC)CC1 (stereo not shown) [CPL-454, 3-((3-decyltridec-2-enoyl)oxy)-2-(((((1-ethylpiperidin-4-yl)methoxy)carbonyl)oxy)methyl)propyl(9Z,12Z)-octadeca-9,12-dienoate] | 0.1315 | 83.51 | 99 | 0.88 |  |
| ((3-hydroxypropyl)azanediyl)bis(butane-4,1-diyl) (2E,2′E)-bis(2-hexylidenedecanoate) [CPL-025] | 0.2 | 92.1 | 97 | 1.34 |  |
| ((3-hydroxypropyl)azanediyl)bis(butane-4,1-diyl)(2E,2′E)-bis(3-butylundec-2-enoate) [CPL-021] | 0.0729 | 69.64 | 95 | 0.75 |  |

Continued, in another order:

| PDI [1] | Size (nm) [1] [nm] | Encapsulation Rate [2] [%] | Compound | In Vivo Efficacy Normalized To Mc3 In Mice (Intravenous Injection) (mice [3]) | In Vivo Efficacy Normalized To Mc3 In Mice (Intramuscular Injection) (mice [4]) |
| --- | --- | --- | --- | --- | --- |
| 0.1733 | 99.82 | 97 | CCCCC/C=C\C/C=C\CCCCCCCC(=O)OCC(COC(=O)/C=C(\CCCCCC)CCCCCCC)COC(=O)OCC1CCCN(C)C1 (stereo not shown) [CPL-383] | 0.80 |  |
| 0.1069 | 95.77 | 97 | CCCCC/C=C\C/C=C\CCCCCCCC(=O)OCC(COC(=O)/C=C(/CCCC)CCCCCC)COC(=O)OCCCN1CCN(C)CC1 (stereo not shown) [CPL-394, 3-(((Z)-3-butylnon-2-enoyl)oxy)-2-((((3-(4-methylpiperazin-1-y)propoxy)carbonyl)oxy)methyl)propyl(9Z,12Z)-octadeca-9,12-dienoate] | 0.13 |  |
| 0.0562 | 98.86 | 97 | CCCCC/C=C\C/C=C\CCCCCCCC(=O)OCC(COC(=O)/C=C(\CCCCCCC)CCCCCCCCCC)COC(=O)OCCCN1CCN(C)CC1 (stereo not shown) [CPL-407, 3-(((E)-3-heptyltridec-2-enoyl)oxy)-2-((((3-(4-methylpiperazin-1-yl)propoxy)carbonyl)oxy)methyl)propyl(9Z,12Z)-octadeca-9,12-dienoate] | 0.21 |  |
| 0.009 | 91.52 | 96 | CCCCC/C=C\C/C=C\CCCCCCCC(=O)OCC(COC(=O)/C=C(/CCCC)CCCCCC)COC(=O)OCCCN1CCCCC1 (stereo not shown) [CPL-416, 3-(((Z)-3-butylnon-2-enoyl)oxy)-2-((((3-(piperidin-1-yl)propoxy)carbonyl)oxy)methyl)propyl(9Z,12Z)-octadeca-9,12-dienoate] | 0.43 |  |
| 0.1904 | 82.69 | 94 | CCCCC/C=C\C/C=C\CCCCCCCC(=O)OCC(COC(=O)/C=C(\CCCCC)CCCCCCCC)COC(=O)OCCCN1CCCCC1 (stereo not shown) [CPL-421, 3-(((E)-3-pentylundec-2-enoyl)oxy)-2-((((3-(piperidin-1-yl)propoxy)carbonyl)oxy)methyl)propyl(9Z,12Z)-octadeca-9,12-dienoate] | 0.37 |  |
| 0.1411 | 73.57 | 96 | CCCCC/C=C\C/C=C\CCCCCCCC(=O)OCC(COC(=O)/C=C(\CCCCCCC)CCCCCCCC)COC(=O)OCCCN1CCCCC1 (stereo not shown) [CPL-428, 3-(((E)-3-heptylundec-2-enoyl)oxy)-2-((((3-(piperidin-1-yl)propoxy)carbonyl)oxy)methyl)propyl(9Z,12Z)-octadeca-9,12-dienoate] | 0.34 |  |
| 0.0875 | 73.57 | 97 | CCCCC/C=C\C/C=C\CCCCCCCC(=O)OCC(COC(=O)/C=C(\CCCCCC)CCCCCCC)COC(=O)OCC1CCN(CC)CC1 (stereo not shown) [CPL-449, 3-((((1-ethylpiperidin-4-yl)methoxy)carbonyl)oxy)-2-((((E)-3-hexyldec-2-enoyl)oxy)methyl)propyl(9Z,12Z)-octadeca-9,12-dienoate] | 0.49 |  |
| 0.21 | 112.08 | 99 | CCCCCCCCCC/C(=C/C(=O)OCCCCCCCCCCN(CCCO)CCCCCOC(=O)/C=C(\CCCC)CCCCCCCCCC)CCC [CPL-1093, 10-(((5-(E)-3-butyltridec-2-enoyl)oxy)pentyl)((3-hydroxypropyl)amino)decyl(E)-3-propyl-2-tridecenoate] | 1.55 |  |
